Key:
[1] = system: Enterococcus faecalis (FRE) ATCC 51299; assay: Antimicrobial growth inhibition, E. faecalis; assay type: cell-based; conditions: ATCC51299; Enterococcus faecalis ATCC 51299, 100 μM
Protocol: (§1) Evaluation of antimicrobial activity in vitro. Compounds were tested against the following panel of bacteria and fungi purchased from the American Type Culture Collection (ATCC). Briefly, bacteria were grown to mid-log phase, diluted with fresh medium to an optical density at 600 nm (OD600) of 0.030-0.060 and then diluted again 1:10. This suspension (195 μL) was added to wells in a 96 well microtiter plate (Sarstedt) and 5 μL of compound dissolved in DMSO was added to give a final concentration of 100-0.1 μM at 2.5% DMSO by volume. A DMSO negative control and standard antibiotic positive controls were included in each plate. All compounds were tested in triplicate for each concentration. Plates were sealed with parafilm, placed in a Ziploc bag to prevent evaporation, and incubated at 30° C. (fungi) or 37° C. (bacteria) for 16-20 hours (48 hours for C. neoformans). The OD600 values for each well were determined with a plate reader (Biotek, EL800) and the data were standardized to the DMSO control wells after subtracting the background from blank medium. Initial single concentrations were tested at 100 μM and active compounds were further tested with at least nine concentrations for a full dose response. Dose response curves were generated using GraphPad Prism 5 software and used to determine the MIC95 concentrations (minimal concentration that inhibits 95% of growth). […]

MDA-MB-231 cells [2] = assay: MTT cytotoxicity, MDA-MB-231; assay type: cell-based; conditions: Homo sapiens; MDA-MB-231, cell viability (MTT), 48 h; read-out: IC80 (equitoxic dose)
Protocol: (§2) Human metastatic breast cancer MDA-MB-231 cells were obtained from the American Type Culture Collection (ATCC) (Rockville, Md.) and maintained in Dulbecco's Modified Eagle's Medium (DMEM) containing 10% fetal bovine serum (FBS) without antibiotics at 37° C. in a humidified, CO2-controlled incubator. The cytotoxicity of compounds 1 and 2 was assessed by reduction of 3-(4, 5-dimethylthiazol-2-yl)-2,5-diphenyltetrazolium bromide (MTT). MDA-MB-231 cells were seeded in 96-well plates at 5×10^3 cells per well and treated with a range of drug concentrations. After 48 hours, cell viability was measured using the MTT Cell Proliferation Assay kit (ATCC) according to the manufacturer's instructions. Percent cell viability was plotted as a function of drug concentrations and analyzed using a sigmoidal dose response function with PRISM v3.03 software (GraphPad) to resolve drug concentrations yielding 50% cell death (IC50). The cell cycle distributions of MDA-MB-231 cells treated with compounds 1 or 2 were analyzed using propidium iodide staining and flow cytometry. 2×10^6 cells were seeded in 100 mm dishes and treated with compounds 1 or 2 at the IC80 values determined by cell viability assays or an equivalent volume of DMSO. 48 h following treatment the cells were collected, fixed, and stained with propidium iodide (Sigma Aldrich) immediately before analysis by flow cytometry.

MDA-MB-231 cells [3] = assay: Cell cycle distribution (propidium iodide, flow cytometry), MDA-MB-231; assay type: cell-based, human
Protocol: Cell cycle distributions of MDA-MB-231 cells after 48 hours in the presence of equitoxic (IC80) doses of (a) compound 1 (15 μM) or (b) compound 2 (8 μM) analyzed by flow cytometry of fixed, propidium iodide-stained cells and compared to vehicle controls (DMSO). A minimum of 3000 cells were analyzed per cell population. Each bar represents the mean±SD across 4 independent cell samples.
Cell-cycle and apoptosis studies were conducted in MDA-MB-231 cells. Cell-cycle analysis of compound 19 at 15 μM concentration lead to arrest of 60% cells in G2/M stage. Similarly, at 1.75 μM concentration, compound 20 arrested 30% of cells in G2/M stage. […] To evaluate the possible mechanism for arrest of cell proliferation, cell-cycle distribution was measured using propidium iodide staining and flow cytometry. […] There are several possibilities that could account for this, including: (i) that cell lysis occurs rapidly following induction of apoptosis, preventing significant accumulation of annexin V-positive bodies, or (ii) that a distinct cell death pathway is triggered by compound 19.
as §2
As shown in Example 11, compounds 1 and 2 both induced apoptosis but involving a mechanism independent of cell cycle arrest. To test whether the toxicity of these agents for MDA-MB-231 cells proceeded via a similar pathway, their effects were monitored on cell cycle distributions using propidium iodide staining and flow cytometry. […]

L1210 cells = assay: Cell cycle distribution (propidium iodide, flow cytometry), L1210; assay type: cell-based, mouse; conditions: IC50 concentrations, 24 h or 48 h
Protocol: 0.32 μM compound 1, b. 5.4 μM compound 2, and analyzed by flow cytometry of fixed, propidium iodide-stained cells. A minimum of 3000 cells were analyzed per cell population. Each bar represents the mean±SD across 4 independent cell samples.
Many antineoplastic compounds arrest cell proliferation by activating specific checkpoints that block progression through the cell cycle. To test whether compounds 1 or 2 inhibited cell proliferation by this mechanism, their effects on L1210 cell cycle distributions were monitored using propidium iodide staining and flow cytometry (FIG. 7). Cell cycle and apoptosis studies were conducted on L1210, a mouse lymphocytic leukemia cell line obtained from the American Type Culture Collection and grown in Dulbecco's Modified Eagle's Medium (DMEM) plus 10% fetal bovine serum (FBS). 2×10^6 cells were seeded in 100 mm dishes and treated with vehicle alone or compounds 1 or 2 at the IC50 values determined by cell viability assays or an equivalent volume of DMSO. At 24 and 48 h following treatment the cells were collected, fixed, and stained with propidium iodide (Sigma Aldrich) immediately before analysis by flow cytometry. Vehicle-treated cells were largely confined to G1 and S phases, with very small (<5%) subpopulations in the G2/M phase or showing sub-(<G1) or super-genomic (>G2) DNA content.

[4] = system: Pseudomonas aeruginosa ATCC 27853; assay: Antimicrobial growth inhibition, P. aeruginosa; assay type: cell-based; conditions: ATCC27853; Pseudomonas aeruginosa ATCC 27853, 100 μM
Protocol: as §1

twenty kinases = assay: Select Screen kinase profiling, twenty kinases; assay type: biochemical; conditions: 5 μM
Description: The thieno[3,2-d]pyrimidine scaffold has been used extensively in the design of kinase inhibitors.

Compound	inhibition at 100 µM [1] [%]	IC80 (MDA-MB-231 cells [2]) [µM]	cells accumulated in G2/M phase (MDA-MB-231 cells [3]; MDA-MB-231, IC80 dose, 48 h) [%]	changes in L1210 cell cycle distribution (L1210 cells)	inhibition at 100 µM [4] [%]	inhibitory activity against twenty kinases (twenty kinases)	effect on cell cycle distribution (MDA-MB-231 cells [3]; MDA-MB-231, IC80 dose, 48 h)	cells arrested in G2/M stage (MDA-MB-231 cells [3]; 15 μM) [%]
Clc1nc(Cl)c2sccc2n1 [Compound 1, 2,4-Dichlorothieno[3,2-d]pyrimidine]	< 43	15	> 70	no substantial changes	< 43	did not exhibit any substantial inhibitory activity	–	–
Clc1nc(Cl)c2scc(Br)c2n1 [Compound 2, 7-Bromo-2,4-dichlorothieno[3,2-d]pyrimidine]	< 43	8	–	no substantial changes	< 43	did not exhibit any substantial inhibitory activity	no effect	–
Clc1nc(Cl)c2[nH]ccc2n1 [Compound 19, 2,4-Dichloropyrrolo[3,2-d]pyrimidine]	–	–	–	–	–	–	–	60

From patent US10561658B2, “Thieno- and pyrrolopyrimidine analogues as anticancer agents and methods of use thereof” (UNIVERSITY OF MARYLAND, BALTIMORE COUNTY, priority 2015, dated 2020)
